# How the values were obtained:
# false cleavers [1] = assay: Test Example 4: herbicidal effect by soil treatment (Table 19, symbol Q); assay type: in vivo, false cleavers (Galium spurium); settings: amount of applied herbicide 320 g/ha
# Method in brief: (§1)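 Applied as a water-diluted emulsion, the compound was sprayed onto soil covering newly sown seeds. Evaluation came three weeks after application, in a greenhouse held at 25° C. to 30° C.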
# Japanese bulrush [2] = assay: Test Example 1: herbicidal activity, application before weed generation under submerged conditions (Table 16, symbol B); assay type: in vivo, Japanese bulrush (Schoenoplectus juncoides); settings: amount of applied herbicide 320 g/ha
# Method in brief: (§2)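 Submerged Wagner pots (alluvial soil, 4 cm water) sown with weed seeds and planted with 2.5-leaf rice seedlings; emulsifiable concentrate diluted in water applied to water surface on sowing day. Held in greenhouse at 25-30 °C; injury scored 0-5 by herbicidal rate after three weeks.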
# wild oat [3] = assay: Test Example 4: herbicidal effect by soil treatment (Table 19, symbol I); assay type: in vivo, wild oat (Avena fatua); settings: amount of applied herbicide 320 g/ha
# Method in brief: as §1
# wild oat [4] = assay: Test Example 5: herbicidal effect by foliage application, plastic box (Table 20, symbol I); assay type: in vivo, wild oat (Avena fatua); settings: foliage application, 320 g/ha, three weeks after application
# Method in brief: (§3)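 Sow seeds spot-wise in sterilized diluvial soil; cover with ~1.5 cm soil. Grow 14 days in greenhouse, 25° C. to 30° C. Spray foliage with emulsion diluted to predetermined amount. Rate effect after 3 weeks.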
# Italian ryegrass [5] = assay: Test Example 5: herbicidal effect by foliage application, plastic box (Table 20, symbol K); assay type: in vivo, Italian ryegrass (Lolium multiflorum); settings: foliage application, 320 g/ha, three weeks after application
# Method in brief: as §3
# chickweed [6] = assay: Test Example 5: herbicidal effect by foliage application, plastic box (Table 20, symbol P); assay type: in vivo, common chickweed (Stellaria media); settings: foliage application, 320 g/ha, three weeks after application
# Method in brief: as §3
# persian speedwell [7] = assay: Test Example 4: herbicidal effect by soil treatment (Table 19, symbol R); assay type: in vivo, Persian speedwell (Veronica persica); settings: amount of applied herbicide 320 g/ha
# Method in brief: as §1
# blackgrass [8] = assay: Test Example 4: herbicidal effect by soil treatment (Table 19, symbol J); assay type: in vivo, blackgrass (Alopecurus myosuroides); settings: amount of applied herbicide 320 g/ha
# Method in brief: as §1
# false cleavers [9] = assay: Test Example 5: herbicidal effect by foliage application, plastic box (Table 20, symbol Q); assay type: in vivo, false cleavers (Galium spurium); settings: foliage application, 320 g/ha, three weeks after application
# Method in brief: as §3
# windgrass [10] = assay: Test Example 5: herbicidal effect by foliage application, plastic box (Table 20, symbol L); assay type: in vivo, windgrass (Apera spica-venti); settings: foliage application, 320 g/ha, three weeks after application
# Method in brief: as §3
# redroot pigweed [11] = assay: Test Example 4: herbicidal effect by soil treatment (Table 19, symbol N); assay type: in vivo, redroot pigweed (Amaranthus retroflexus); settings: amount of applied herbicide 320 g/ha
# Method in brief: as §1
# green foxtail [12] = assay: Test Example 4: herbicidal effect by soil treatment (Table 19, symbol G); assay type: in vivo, green foxtail (Setaria viridis); settings: amount of applied herbicide 320 g/ha
# Method in brief: as §1
# barnyard grass [13] = assay: Test Example 5: herbicidal effect by foliage application, plastic box (Table 20, symbol H); assay type: in vivo, barnyard grass (Echinochloa crus-galli); settings: foliage application, 320 g/ha, three weeks after application
# Method in brief: as §3
# chickweed [14] = assay: Test Example 4: herbicidal effect by soil treatment (Table 19, symbol P); assay type: in vivo, common chickweed (Stellaria media); settings: amount of applied herbicide 320 g/ha
# Method in brief: as §1
# green foxtail [15] = assay: Test Example 5: herbicidal effect by foliage application, plastic box (Table 20, symbol G); assay type: in vivo, green foxtail (Setaria viridis); settings: foliage application, 320 g/ha, three weeks after application
# Method in brief: as §3
# Japanese bulrush [16] = assay: Test Example 2: herbicidal activity, application during weed generation under submerged conditions (Table 17, symbol B); assay type: in vivo, Japanese bulrush (Schoenoplectus juncoides); settings: AAH 320 g/ha; application during weed generation, submerged conditions
# Method in brief: (§4)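 Steps: fill Wagner pots with alluvial soil; add water to give 4 cm depth; sow the species mixed; grow under glass at 25–30° C.; at 1–2 leaves apply water-diluted emulsion formulation to the water surface at a fixed herbicide amount; score after 3 weeks.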
# persian speedwell [17] = assay: Test Example 5: herbicidal effect by foliage application, plastic box (Table 20, symbol R); assay type: in vivo, Persian speedwell (Veronica persica); settings: foliage application, 320 g/ha, three weeks after application
# Method in brief: as §3
# oval-leafed pondweed [18] = assay: Test Example 2: herbicidal activity, application during weed generation under submerged conditions (Table 17, symbol C); assay type: in vivo, oval-leafed pondweed (Monochoria vaginalis); settings: AAH 320 g/ha; application during weed generation, submerged conditions
# Method in brief: as §4
# late watergrass [19] = assay: Test Example 1: herbicidal activity, application before weed generation under submerged conditions (Table 16, symbol A); assay type: in vivo, late watergrass (Echinochloa oryzicola); settings: amount of applied herbicide 320 g/ha
# Method in brief: as §2
# Italian ryegrass [20] = assay: Test Example 4: herbicidal effect by soil treatment (Table 19, symbol K); assay type: in vivo, Italian ryegrass (Lolium multiflorum); settings: amount of applied herbicide 320 g/ha
# Method in brief: as §1
# velvetleaf [21] = assay: Test Example 5: herbicidal effect by foliage application, plastic box (Table 20, symbol M); assay type: in vivo, velvetleaf (Abutilon theophrasti); settings: foliage application, 320 g/ha, three weeks after application
# Method in brief: as §3
# lambsquarters [22] = assay: Test Example 5: herbicidal effect by foliage application, plastic box (Table 20, symbol O); assay type: in vivo, lambsquarters (Chenopodium album); settings: foliage application, 320 g/ha, three weeks after application
# Method in brief: as §3
# lambsquarters [23] = assay: Test Example 4: herbicidal effect by soil treatment (Table 19, symbol O); assay type: in vivo, lambsquarters (Chenopodium album); settings: amount of applied herbicide 320 g/ha
# Method in brief: as §1
# oval-leafed pondweed [24] = assay: Test Example 1: herbicidal activity, application before weed generation under submerged conditions (Table 16, symbol C); assay type: in vivo, oval-leafed pondweed (Monochoria vaginalis); settings: amount of applied herbicide 320 g/ha
# Method in brief: as §2
# late watergrass [25] = assay: Test Example 2: herbicidal activity, application during weed generation under submerged conditions (Table 17, symbol A); assay type: in vivo, late watergrass (Echinochloa oryzicola); settings: AAH 320 g/ha; application during weed generation, submerged conditions
# Method in brief: as §4
# southern crabgrass [26] = assay: Test Example 4: herbicidal effect by soil treatment (Table 19, symbol F); assay type: in vivo, southern crabgrass (Digitaria ciliaris); settings: amount of applied herbicide 320 g/ha
# Method in brief: as §1
# southern crabgrass [27] = assay: Test Example 5: herbicidal effect by foliage application, plastic box (Table 20, symbol F); assay type: in vivo, southern crabgrass (Digitaria ciliaris); settings: foliage application, 320 g/ha, three weeks after application
# Method in brief: as §3
# blackgrass [28] = assay: Test Example 5: herbicidal effect by foliage application, plastic box (Table 20, symbol J); assay type: in vivo, blackgrass (Alopecurus myosuroides); settings: foliage application, 320 g/ha, three weeks after application
# Method in brief: as §3
# barnyard grass [29] = assay: Test Example 4: herbicidal effect by soil treatment (Table 19, symbol H); assay type: in vivo, barnyard grass (Echinochloa crus-galli); settings: amount of applied herbicide 320 g/ha
# Method in brief: as §1
# redroot pigweed [30] = assay: Test Example 5: herbicidal effect by foliage application, plastic box (Table 20, symbol N); assay type: in vivo, redroot pigweed (Amaranthus retroflexus); settings: foliage application, 320 g/ha, three weeks after application
# Method in brief: as §3
# velvetleaf [31] = assay: Test Example 4: herbicidal effect by soil treatment (Table 19, symbol M); assay type: in vivo, velvetleaf (Abutilon theophrasti); settings: amount of applied herbicide 320 g/ha
# Method in brief: as §1
# windgrass [32] = assay: Test Example 4: herbicidal effect by soil treatment (Table 19, symbol L); assay type: in vivo, windgrass (Apera spica-venti); settings: amount of applied herbicide 320 g/ha
# Method in brief: as §1
smiles,measurement,setting,value
CCCC(=O)Oc1c(C)nn(C)c(=O)c1-c1c(-c2ccc(F)cc2)sc2cc(OC)ccc12 [3-064],"Q: false cleavers, herbicidal effect grade",false cleavers [1],0 (Herbicidal rate of 5% or less (almost no effect))
same,"Herbicidal effect, B: Japanese bulrush",Japanese bulrush [2],3 (Herbicidal rate of 40% or more and less than 70%)
same,"I: wild oat, herbicidal effect grade",wild oat [3],0 (Herbicidal rate of 5% or less (almost no effect))
same,"I: wild oat, herbicidal effect grade",wild oat [4],0 (Herbicidal rate of 5% or less (almost no effect))
same,"K: Italian ryegrass, herbicidal effect grade",Italian ryegrass [5],0 (Herbicidal rate of 5% or less (almost no effect))
same,"P: chickweed, herbicidal effect grade",chickweed [6],5 (Herbicidal rate of 90% or more (almost completely withered))
same,"R: persian speedwell, herbicidal effect grade",persian speedwell [7],4 (Herbicidal rate of 70% or more and less than 90%)
same,"J: blackgrass, herbicidal effect grade",blackgrass [8],0 (Herbicidal rate of 5% or less (almost no effect))
same,"Q: false cleavers, herbicidal effect grade",false cleavers [9],0 (Herbicidal rate of 5% or less (almost no effect))
same,"L: windgrass, herbicidal effect grade",windgrass [10],0 (Herbicidal rate of 5% or less (almost no effect))
same,"N: redroot pigweed, herbicidal effect grade",redroot pigweed [11],2 (Herbicidal rate of 20% or more and less than 40%)
same,"G: green foxtail, herbicidal effect grade",green foxtail [12],0 (Herbicidal rate of 5% or less (almost no effect))
same,"H: barnyard grass, herbicidal effect grade",barnyard grass [13],0 (Herbicidal rate of 5% or less (almost no effect))
same,"P: chickweed, herbicidal effect grade",chickweed [14],4 (Herbicidal rate of 70% or more and less than 90%)
same,"G: green foxtail, herbicidal effect grade",green foxtail [15],0 (Herbicidal rate of 5% or less (almost no effect))
same,"herbicidal effect rating, B: Japanese bulrush",Japanese bulrush [16],1 (Herbicidal rate of 5% or more and less than 20%)
same,"R: persian speedwell, herbicidal effect grade",persian speedwell [17],4 (Herbicidal rate of 70% or more and less than 90%)
same,"herbicidal effect rating, C: oval-leafed pondweed",oval-leafed pondweed [18],3 (Herbicidal rate of 40% or more and less than 70%)
same,"Herbicidal effect, A: late watergrass",late watergrass [19],0 (Herbicidal rate of 5% or less (almost no effect))
same,"K: Italian ryegrass, herbicidal effect grade",Italian ryegrass [20],0 (Herbicidal rate of 5% or less (almost no effect))
same,"M: velvetleaf, herbicidal effect grade",velvetleaf [21],1 (Herbicidal rate of 5% or more and less than 20%)
same,"O: lambsquarters, herbicidal effect grade",lambsquarters [22],2 (Herbicidal rate of 20% or more and less than 40%)
same,"O: lambsquarters, herbicidal effect grade",lambsquarters [23],3 (Herbicidal rate of 40% or more and less than 70%)
same,"Herbicidal effect, C: oval-leafed pondweed",oval-leafed pondweed [24],4 (Herbicidal rate of 70% or more and less than 90%)
same,"herbicidal effect rating, A: late watergrass",late watergrass [25],0 (Herbicidal rate of 5% or less (almost no effect))
same,"F: southern crabgrass, herbicidal effect grade",southern crabgrass [26],0 (Herbicidal rate of 5% or less (almost no effect))
same,"F: southern crabgrass, herbicidal effect grade",southern crabgrass [27],0 (Herbicidal rate of 5% or less (almost no effect))
same,"J: blackgrass, herbicidal effect grade",blackgrass [28],0 (Herbicidal rate of 5% or less (almost no effect))
same,"H: barnyard grass, herbicidal effect grade",barnyard grass [29],0 (Herbicidal rate of 5% or less (almost no effect))
same,"N: redroot pigweed, herbicidal effect grade",redroot pigweed [30],0 (Herbicidal rate of 5% or less (almost no effect))
same,"M: velvetleaf, herbicidal effect grade",velvetleaf [31],0 (Herbicidal rate of 5% or less (almost no effect))
same,"L: windgrass, herbicidal effect grade",windgrass [32],0 (Herbicidal rate of 5% or less (almost no effect))

# From US20230085307A1, “PYRIDAZINONE COMPOUND AND HERBICIDE” (NISSAN CHEMICAL CORPORATION, priority 2019, published 2023)
